From ChEMBL document CHEMBL1143866, “Syntheses of N3-substituted thymine acyclic nucleoside phosphonates and a comparison of their inhibitory effect towards thymidine phosphorylase” (Bioorg Med Chem Lett, 2008) come the findings set out here.

The target in assay [1] is Thymidine phosphorylase (Escherichia coli K-12) (UniProt P07650). The assay is described as follows: Inhibition of Escherichia coli thymidine phosphorylase assessed as ratio of phosphorolysis in presence of drug to control at 10 umol/l.
Chain of Thymidine phosphorylase (Escherichia coli K-12) (P07650 whole entry, looked up): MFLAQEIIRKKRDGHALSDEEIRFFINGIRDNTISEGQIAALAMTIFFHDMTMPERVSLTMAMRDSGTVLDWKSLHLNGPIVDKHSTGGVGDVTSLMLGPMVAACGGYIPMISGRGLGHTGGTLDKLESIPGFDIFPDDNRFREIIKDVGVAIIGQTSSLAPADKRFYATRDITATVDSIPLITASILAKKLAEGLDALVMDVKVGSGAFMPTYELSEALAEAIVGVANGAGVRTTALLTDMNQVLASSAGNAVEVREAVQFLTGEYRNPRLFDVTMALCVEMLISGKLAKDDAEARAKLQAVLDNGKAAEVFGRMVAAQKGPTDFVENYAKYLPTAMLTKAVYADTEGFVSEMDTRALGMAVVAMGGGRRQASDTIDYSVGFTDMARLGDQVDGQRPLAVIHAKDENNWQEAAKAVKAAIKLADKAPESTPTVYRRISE
In assay [2] the target is T1, Thymidine phosphorylase (Rattus norvegicus) (UniProt Q5FVR2).
T1 sequence (whole entry): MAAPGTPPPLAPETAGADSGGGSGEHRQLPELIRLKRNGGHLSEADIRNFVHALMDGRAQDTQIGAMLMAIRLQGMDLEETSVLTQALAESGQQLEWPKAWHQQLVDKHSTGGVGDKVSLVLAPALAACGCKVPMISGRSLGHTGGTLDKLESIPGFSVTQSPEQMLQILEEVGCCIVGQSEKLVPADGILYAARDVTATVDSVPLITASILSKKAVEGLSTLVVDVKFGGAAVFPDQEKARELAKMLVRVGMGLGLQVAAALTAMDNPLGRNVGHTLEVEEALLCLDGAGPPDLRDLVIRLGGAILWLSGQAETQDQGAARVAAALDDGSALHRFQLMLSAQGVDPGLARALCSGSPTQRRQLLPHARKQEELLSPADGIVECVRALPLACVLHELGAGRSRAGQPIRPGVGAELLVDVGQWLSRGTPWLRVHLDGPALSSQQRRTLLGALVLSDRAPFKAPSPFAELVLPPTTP
Put plainly: Inhibition of Sprague-Dawley rat lymphoma thymidine phosphorylase assessed as ratio of phosphorolysis in presence of drug to control at 10 umol/l.

As for `Cc1c[nH]c(=O)n(C[C@@H](CF)OCP(=O)(O)O)c1=O`, the Ratio in assay [1] was determined as 0.93.

On to `Cc1c[nH]c(=O)n(C[C@@H](CO)OCP(=O)(O)O)c1=O`, for which, in assay [1], the Ratio worked out at 0.94.

On to `Cc1c[nH]c(=O)n(CCOCP(=O)(O)O)c1=O`, for which the Ratio came to 1.44 in assay [2] and 1.07 in assay [1].

In the case of `Cc1c[nH]c(=O)n(C[C@H](CO)OCP(=O)(O)O)c1=O`, the Ratio in assay [2] turned out to be 0.78; in assay [1], 1.01.

Take `Cc1c[nH]c(=O)n(C[C@H](CF)OCP(=O)(O)O)c1=O`: the Ratio in assay [2] was found to be 0.75; in assay [1], 0.98.
